Measured values from paper PMC12504684 (Communications Chemistry, 2025).
Where two headings read alike, the source gives them in different places.

How the values were obtained:
468 kinases [1] = conditions: concentration of 100 nM; cited from earlier work
468 kinases [2] = type: binding; conditions: concentration of 100 nM

Compound	number of wild-type kinases inhibited (percent control <35%) (468 kinases [1])	number of wild-type kinases inhibited (percent control <35%) (468 kinases [2])
Cc1cnc(Nc2ccc(OCCN3CCCC3)cc2)nc1Nc1cccc(S(=O)(=O)NC(C)(C)C)c1 [Fedratinib]	34	–
C1=C/COCc2cc(ccc2OCCN2CCCC2)Nc2nccc(n2)-c2cccc(c2)COC/1 [Pacritinib]	–	55
